Data: US6514971B1, “Cinnoline derivatives and use as medicine” (Zeneca Limited, priority 1996, dated 2003)
Structures can show the parent of a compound that is named as a salt.

What was measured:
[1] = target: T1, VEGF receptor tyrosine kinase (Homo sapiens, UniProt P17948); experiment: In vitro receptor tyrosine kinase inhibition test (VEGF receptor); format: biochemical
T1 construct: encoding most of the cytoplasmic domain, commencing with methionine 783 and including the termination codon; made in house; host or cells: Spodoptera frugiperda Sf21 insect cells (baculovirus); cleared Triton X100 lysate used as enzyme stock
T1 sequence (P17948 781-1338 limits assumed): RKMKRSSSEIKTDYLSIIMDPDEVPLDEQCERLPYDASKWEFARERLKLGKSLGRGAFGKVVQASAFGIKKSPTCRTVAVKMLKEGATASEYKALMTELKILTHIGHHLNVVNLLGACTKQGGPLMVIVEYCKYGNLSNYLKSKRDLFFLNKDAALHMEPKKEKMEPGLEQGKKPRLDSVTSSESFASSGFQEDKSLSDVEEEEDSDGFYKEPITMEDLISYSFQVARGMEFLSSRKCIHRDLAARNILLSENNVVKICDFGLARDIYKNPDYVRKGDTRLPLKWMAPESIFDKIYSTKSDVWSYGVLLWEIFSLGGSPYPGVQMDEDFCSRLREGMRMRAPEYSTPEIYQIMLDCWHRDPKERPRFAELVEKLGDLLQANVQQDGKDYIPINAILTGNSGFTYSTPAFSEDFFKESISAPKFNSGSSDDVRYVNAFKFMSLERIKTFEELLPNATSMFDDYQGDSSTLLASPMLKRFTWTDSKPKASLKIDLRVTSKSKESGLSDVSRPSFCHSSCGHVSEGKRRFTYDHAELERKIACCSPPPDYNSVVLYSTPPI
Description: (§1) (a) In Vitro Receptor Tyrosine Kinase Inhibition Test
This assay determines the ability of a test compound to inhibit tyrosine kinase activity. […] These may then be expressed in a suitable expression system to obtain polypeptide with tyrosine kinase activity. […] This recombinant construct was co-transfected into insect cells (for example Spodoptera frugiperda 21 (Sf21)) with viral DNA (eg Pharmingen BaculoGold) to prepare recombinant baculovirus.
For expression of cFlt tyrosine kinase activity, Sf21 cells were infected with plaque-pure cFlt recombinant virus at a multiplicity of infection of 3 and harvested 48 hours later. […] The suspension was centrifuged for 10 minutes at 13.000 rpm at 4° C., the supernatant (enzyme stock) was removed and stored in aliquots at −70° C. Each new batch of stock enzyme was titrated in the assay by dilution with enzyme diluent (100 mM Hepes pH 7.4, 0.2 mM Na3VO4, 0.1% v/v Triton X100, 0.2 mM dithiothreitol). For a typical batch, stock enzyme is diluted 1 in 2000 with enzyme diluent and 50 μl of dilute enzyme is used for each assay well.
(§2) A stock of substrate solution was prepared from a random copolymer containing tyrosine, for example Poly (Glu, Ala, Tyr) 6:3:1 (Sigma P3899), stored as 1 mg/ml stock in PBS at −20° C. and diluted 1 in 500 with PBS for plate coating.
(§3) On the day before the assay 100 μl of diluted substrate solution was dispensed into all wells of assay plates (Nunc maxisorp 96-well immunoplates) which were sealed and left overnight at 4° C.
(§4) On the day of the assay the substrate solution was discarded and the assay plate wells were washed once with PBST (PBS containing 0.05% v/v Tween 20) and once with 50 mM Hepes pH7.4.
Test compounds were diluted with 10% dimethylsulphoxide (DMSO) and 25 μl of diluted compound was transferred to wells in the washed assay plates. “Total” control wells contained 10% DMSO instead of compound. Twenty five microliters of 40 mM MnCl2 containing 8 μM adenosine-5′-triphosphate (ATP) was added to all test wells except “blank” control wells which contained MnCl2 without ATP. To start the reactions 50 μl of freshly diluted enzyme was added to each well and the plates were incubated at room temperature for 20 minutes. The liquid was then discarded and the wells were washed twice with PBST. […] Plates were then incubated for 20-60 minutes at room temperature until the optical density value of the “total” control wells, measured at 405 nm using a plate reading spectrophotometer, was approximately 1.0.

[2] = target: T2, epidermal growth factor (EGF) receptor tyrosine kinase (Homo sapiens, UniProt P00533); experiment: In vitro receptor tyrosine kinase inhibition test (EGF receptor); format: biochemical
T2 construct: made in house; host or cells: insect cells (baculovirus, as for Flt)
Description: as §1
This assay determines the ability of a test compound to inhibit tyrosine kinase activity. DNA encoding VEGF or epidermal growth factor (EGF) receptor cytoplasmic domains may be obtained by total gene synthesis (Edwards M, International Biotechnology Lab 5(3), 19-25, 1987) or by cloning. These may then be expressed in a suitable expression system to obtain polypeptide with tyrosine kinase activity. […] In the case of the VEGF receptor Flt (Genbank accession number X51602), a 1.7 kb DNA fragment encoding most of the cytoplasmic domain, commencing with methionine 783 and including the termination codon, described by Shibuya et al (Oncogene, 1990, 5: 519-524), was isolated from cDNA and cloned into a baculovirus transplacement vector (for example pAcYM1 (see The Baculovirus Expression System: A Laboratory Guide, L. A. King and R. D. Possee, Chapman and Hall, 1992) or pAc360 or pBlueBacHis (available from Invitrogen Corporation)). This recombinant construct was co-transfected into insect cells (for example Spodoptera frugiperda 21 (Sf21)) with viral DNA (eg Pharmingen BaculoGold) to prepare recombinant baculovirus. (Details of the methods for the assembly of recombinant DNA molecules and the preparation and use of recombinant baculovirus can be found in standard texts for example Sambrook et al, 1989. Molecular cloning—A Laboratory Manual, 2nd edition, Cold Spring Harbour Laboratory Press and O'Reilly et al, 1992, Baculovirus Expression Vectors—A Laboratory Manual. W. H. Freeman and Co. New York). For other tyrosine kinases for use in assays, cytoplasmic fragments starting from methionine 806 (KDR, Genbank accession number L04947) and methionine 668 (EGF receptor, Genbank accession number X00588) may be cloned and expressed in a similar manner.
For expression of cFlt tyrosine kinase activity, Sf21 cells were infected with plaque-pure cFlt recombinant virus at a multiplicity of infection of 3 and harvested 48 hours later. Harvested cells were washed with ice cold phosphate buffered saline solution (PBS) (10 mM sodium phosphate pH7.4, 138 mM NaCl, 2.7 mM KCl) then resuspended in ice cold HNTG/PMSF (20 mM Hepes pH7.5, 150 mM NaCl, 10% v/v glycerol, 1% v/v Triton X100. 1.5 mM MgCl2, 1 mM ethylene glycol-bis(βaminoethyl ether) N,N,N′,N′-tetraacetic acid (EGTA), 1 mM PMSF (phenylmethylsulphonyl fluoride); the PMSF is added just before use from a freshly-prepared 100 mM solution in methanol) using 1 ml HNTG/PMSF per 10 million cells. The suspension was centrifuged for 10 minutes at 13.000 rpm at 4° C., the supernatant (enzyme stock) was removed and stored in aliquots at −70° C. Each new batch of stock enzyme was titrated in the assay by dilution with enzyme diluent (100 mM Hepes pH 7.4, 0.2 mM Na3VO4, 0.1% v/v Triton X100, 0.2 mM dithiothreitol). For a typical batch, stock enzyme is diluted 1 in 2000 with enzyme diluent and 50 μl of dilute enzyme is used for each assay well.
as §2, §3, §4
Test compounds were diluted with 10% dimethylsulphoxide (DMSO) and 25 μl of diluted compound was transferred to wells in the washed assay plates. “Total” control wells contained 10% DMSO instead of compound. Twenty five microliters of 40 mM MnCl2 containing 8 μM adenosine-5′-triphosphate (ATP) was added to all test wells except “blank” control wells which contained MnCl2 without ATP. […]

T2 sequence (P00533 669-1210 limits assumed): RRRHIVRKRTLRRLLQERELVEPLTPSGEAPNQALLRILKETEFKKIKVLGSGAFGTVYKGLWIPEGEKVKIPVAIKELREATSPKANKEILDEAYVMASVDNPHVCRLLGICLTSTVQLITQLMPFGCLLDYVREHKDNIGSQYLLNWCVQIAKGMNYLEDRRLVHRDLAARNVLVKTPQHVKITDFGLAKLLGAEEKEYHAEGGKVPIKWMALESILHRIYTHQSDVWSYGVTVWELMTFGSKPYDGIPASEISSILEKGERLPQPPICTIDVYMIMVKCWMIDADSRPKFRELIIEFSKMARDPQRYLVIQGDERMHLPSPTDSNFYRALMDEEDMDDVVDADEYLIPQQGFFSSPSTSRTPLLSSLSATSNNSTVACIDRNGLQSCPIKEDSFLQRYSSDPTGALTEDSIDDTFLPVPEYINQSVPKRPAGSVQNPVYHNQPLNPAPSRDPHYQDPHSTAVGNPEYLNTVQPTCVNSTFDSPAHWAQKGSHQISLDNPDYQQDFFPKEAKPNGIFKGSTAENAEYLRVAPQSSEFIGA

SMILES | melting point [°C] | activity against VEGF receptor tyrosine kinase [1] | activity against epidermal growth factor (EGF) receptor tyrosine kinase [2]
COc1cc2c(Nc3cc(O)c(C)cc3F)cnnc2cc1OCc1nccn1C.Cl | 215 to 221 |  | 
COc1cc2c(Nc3cc(O)c(C)cc3F)cnnc2cc1OCc1ccncc1.Cl | 244 to 252 |  | 
COCCOc1cc2nncc(Nc3ccc(Br)cc3F)c2cc1OC (as salt: hydrochloride) [Example 5, 4-(4-bromo-2-fluoroanilino)-6-methoxy-7-(2-methoxyethoxy)cinnoline] | 278 to 281 |  | 
COc1cc2c(Nc3cc(O)c(Cl)cc3F)cnnc2cc1OCc1ccccc1 (as salt: hydrochloride) [Example 6, 7-benzyloxy-4-(4-chloro-2-fluoro-5-hydroxyanilino)-6-methoxycinnoline] | 280 to 284 |  | 
COc1cc2c(Nc3cc(OC(C)=O)c(Cl)cc3F)cnnc2cc1OCc1ccccc1 (as salt: hydrochloride) [Example 7, 4-(5-acetoxy-4-chloro-2-fluoroanilino)-7-benzyloxy-6-methoxycinnoline] | 240 to 247 |  | 
COc1cc2c(Nc3cc(O)c(Cl)cc3F)cnnc2cc1OCc1ccncc1 (as salt: hydrochloride) [Example 10, 4-(4-chloro-2-fluoro-5-hydroxyanilino)-6-methoxy-7-(4-pyridylmethoxy)cinnoline] | 243 to 251 |  | 
COCCOc1cc2nncc(Nc3cc(O)c(C)cc3F)c2cc1OC (as salt: hydrochloride) [Example 11, 4-(2-fluoro-5-hydroxy-4-methylanilino)-6-methoxy-7-(2-methoxyethoxy)cinnoline] | 283 to 290 |  | 
COc1cc2c(Nc3cc(O)c(Cl)cc3F)cnnc2cc1OCCCN1CCOCC1 (as salt: hydrochloride) [Example 12, 4-(4-chloro-2-fluoro-5-hydroxyanilino)-6-methoxy-7-(3-morpholinopropoxy)cinnoline] | 218 to 225 |  | 
COc1cc2c(Nc3cc(O)c(Cl)cc3F)cnnc2cc1OCCCN1CCCC1 (as salt: hydrochloride) [Example 13, 4-(4-chloro-2-fluoro-5-hydroxyanilino)-6-methoxy-7-(3-pyrrolidinopropoxy)cinnoline] | 240 to 245 |  | 
COc1ccc2c(Nc3ccc(C)c(O)c3)cnnc2c1 (as salt: hydrochloride) [Example 14, 4-(3-hydroxy-4-methylanilino)-7-methoxycinnoline] | 270 to 275 |  | 
COc1cc2nncc(Nc3cc(O)c(C)cc3F)c2cc1OC (as salt: hydrochloride) [Example 21, 4-(2-fluoro-5-hydroxy-4-methylanilino)-6,7-dimethoxycinnoline] | 251 to 253 |  | 
COc1cc2nncc(Nc3cc(O)c(Cl)cc3F)c2cc1OC (as salt: hydrochloride) [Example 22, 4-(4-chloro-2-fluoro-5-hydroxyanilino)-6,7-dimethoxycinnoline] | 255 to 256 |  | 
COCCOCCOc1cc2nncc(Nc3cc(O)c(C)cc3F)c2cc1OC (as salt: hydrochloride) [Example 23, 4-(2-fluoro-5-hydroxy-4-methylanilino)-6-methoxy-7-[2-(2-methoxyethoxy)ethoxy]cinnoline] | 250 to 256 |  | 
COCCOc1cc2nncc(Nc3cc(O)c(C)cc3F)c2cc1OC [4-(2-fluoro-5-hydroxy-4-methylanilino)-6-methoxy-7-(2-methoxyethoxy)cinnoline] |  | good activity | lack of significant activity
COc1cc2c(Nc3cc(O)c(C)cc3F)cnnc2cc1OCc1nccn1C [4-(2-fluoro-5-hydroxy-4-methylanilino)-6-methoxy-7-[(1-methylimidazol-2-yl)methoxy]cinnoline] |  | good activity | lack of significant activity
COc1cc2c(Nc3cc(O)c(C)cc3F)cnnc2cc1OCc1csc(C)n1 [4-(2-fluoro-5-hydroxy-4-methylanilino)-6-methoxy-7-[(2-methylthiazol-4-yl)methoxy]cinnoline] |  | good activity | lack of significant activity
COc1cc2nncc(Nc3ccc(C)c(O)c3)c2cc1OC [Example 1, 4-(3-hydroxy-4-methylanilino)-6,7-dimethoxycinnoline] | 240 to 244 |  | 
COCCOc1cc2nncc(Nc3cc(O)c(Cl)cc3F)c2cc1OC [Example 8, 4-(4-chloro-2-fluoro-5-hydroxyanilino)-6-methoxy-7-(2-methoxyethoxy)cinnoline] |  | good activity | lack of significant activity
COCCOc1cc2nncc(Nc3cc(O)c(Br)cc3F)c2cc1OC [Example 9, 4-(4-bromo-2-fluoro-5-hydroxyanihno)-6-methoxy-7-(2-methoxyethoxy)cinnoline] |  | good activity | lack of significant activity
COCCOc1cc2nncc(Oc3cc(O)c(C)cc3F)c2cc1OC [Example 20, 4-(2-fluoro-5-hydroxy-4-methylphenoxy)-6-methoxy-7-(2-methoxyethoxy)cinnoline] | 267 to 273 |  | 
